Test results from patent US20140148482A1, “METHOD FOR SCREENING ANTI-CANCER DRUGS AND METHOD OF CANCER TREATMENT” (National Taiwan University, priority 2012, published 2014).
Where two headings read alike, the source gives them in different places.

Columns and labels:
[1] = test system: GADD45β mRNA in Huh-7 cells; experiment: GADD45β mRNA induction in Huh-7 cells, quantitative RT-PCR; type: cell-based, human; conditions: 24 hours; for GADD45β relative gene expression, Mean: Huh-7 cells, 10 μM, reference control group = 100%; for GADD45β mRNA expression induction: Huh-7, 10 uM, FIG. 4B
Procedure: (§1) Huh-7 cells, were added with 10 μM of the candidate compound and co-cultured under the same conditions for 24 hours. Sorafenib (10 μM) is used as a positive control group, and Huh-7 cells without compound treatment is used as the reference control group. mRNA levels were assessed through quantitative RT-PCR.
(§2) RNA was extracted using a Trizol reagent (Invitrogen, San Diego, Calif.). cDNAs were synthesized from total RNA (1 μg) using a High Capacity cDNA Archive kit (Applied Biosystems, Foster City, Calif.) and quantified using the TaqMan-Universal or SYBR Green PCR Master Mix (Applied Biosystems, Foster City, Calif.) on an ABI PRISM 7900 Sequence Detection System (Applied Biosystems, Foster City, Calif.). The primers for the GADD45β, GADD45γ and c-jun genes were purchased from Applied Biosystems (ABI TaqMan assay ID: Hs00169587_ml, Hs00198672_ml and Hs00277190_s1). Primers for the hypoxanthine phosphoribosyltransferase (HPRT; sense 5′-[…]-3′ and antisense 5′-[…]-3′) gene were used as endogenous controls. Conditions for PCR were as follows: 50° C. for 2 minutes, 95° C. for 10 minutes, and then 40 cycles of 95° C. for 15 seconds (denaturation) and 60° C. for 1 minute (annealing/extension). The relative mRNA amount of the target/control genes was calculated using the ΔCt (threshold cycle) method: relative expression=2−ΔCt, where ΔCt=Ct (target gene)−Ct (control gene). The gene expression of the reference control group is as 100%.
The effects of GADD45β mRNA induction by different concentrations of the candidate compounds were tested.

[2] = test system: GADD45γ mRNA in Huh-7 cells; experiment: GADD45γ mRNA induction in Huh-7 cells, quantitative RT-PCR; type: cell-based, human; conditions: for GADD45γ relative gene expression, Mean: Huh-7 cells, 10 μM, 24 hours, reference control group = 100%; for screening criterion: increased expression of GADD45 family: 300% or above of GADD45γ expression, 800% or above of GADD45β expression, or both, Table 1
Procedure: as §1, §2
(§3) SC-20 was then tested for GADD45β, GADD45γ and c-Jun mRNA in sorafenib-sensitive (Huh-7) and sorafenib-resistant (Huh-7R) cell lines. The cell culture and the steps of SC-20 treatment were as described above. The concentration of SC-20 and was 10 μm. Said mRNA was measured via qRT-PCR.
as §2, with “Hs00277190_sl).” for “Hs00277190_s1).”, “gene).” for “gene). The gene expression of the reference control group is as 100%.”

[3] = test system: c-jun mRNA in Huh-7 cells; experiment: c-jun mRNA induction in Huh-7 cells, quantitative RT-PCR; type: cell-based, human; conditions: 10 μM, 24 hours, reference control group = 100%
Procedure: as §1, §2

Hep3B cells [4] = experiment: MTT cell viability, Hep3B; conditions: for cell viability of Hep3B (percentage of surviving cells): 72 hours of drug treatment, FIG. 2A
Procedure: (§7) Cell viability was assessed using an MTT (3-(4,5-dimethylthiazol-2-yl)-2,5-diphenyltetrazolium bromide) assay
(§8) Cells were cultured in DMEM, containing 10% fetal bovine serum, penicillin (100 units/mL), streptomycin (100 μg/mL), L-glutamine (2 mmol/L), and sodium pyruvate (1 mmol/L) at 37° C. in a humidified incubator containing 5% CO2.
(§9) Then the cells were collected and measured via an MTT assay.

[5] = test system: HUVEC (human umbilical venous endothelial cells); experiment: MTT cell viability, HUVEC; type: cell-based; conditions: 72 hours, especially in 5 uM treatments, FIG. 2B
Procedure: as §7
(§10) The HCC cell line, Hep3B, was obtained from the American Type Culture Collection (ATCC), and the Huh-7 cell line was from the Health Science Research Resources Bank. Cells were cultured in DMEM, containing 10% fetal bovine serum, penicillin (100 units/mL), streptomycin (100 μg/mL), L-glutamine (2 mmol/L), and sodium pyruvate (1 mmol/L) at 37° C. in a humidified incubator containing 5% CO2. A sorafenib-resistant cell line, Huh-7R, was generated through continuous treatment of Huh-7 cells with sorafenib up to 10 μmol/L.Human umbilical vein endothelial cells (HUVEC) were procured from ScienCell Research Laboratories, CA. HUVECs were maintained in endothelial cell culture medium (ScienCell) to selectively promote growth at 37° C. in a 5% CO2 incubator.
as §9

BNL-MEA allograft = experiment: Orthotopic allograft model of HCC, BNL-MEA; type: in vivo, mice
Procedure: The protocol for the in vivo studies was approved by the Institutional Animal Care and Use Committee of College of Medicine, National Taiwan University. All the animal studies were performed according to the criteria outlined in the Guide for the Care and Use of Laboratory Animals prepared by National Academy of Sciences and published by NIH. BALB/c mice were anaesthetized with isoflurane, and a small transverse incision was made in the left abdomen. BNL-MEA cells (˜1.5×10^5) suspended in 20 μl PBS were slowly injected with a 30-gauge needle into the left liver lobe, which was exposed through the incision. After injection, the incision was closed by suture with absorbable material. Five days after the surgery, the mice were randomized to three treatment groups (n≧4 in each group): (a) vehicle control, (b) SC-20 20 mg/kg/d and (c) sorafenib 10 mg/kg/d. Drug treatment was given daily via gavage. Mice sacrificed after twenty-five treatments were used as end-points of the therapeutic effect. In FIG. 7C, the arrows indicated the tumors.

[6] = test system: GADD45γ mRNA in Huh-7R cells; experiment: GADD45γ mRNA induction in sorafenib-resistant Huh-7R cells, qRT-PCR; type: cell-based, human; conditions: 10 μm, cut-off more than 300%, FIG. 3B
Procedure: as §3
as §2, with “Hs00277190_sl).” for “Hs00277190_s1).”, “gene).” for “gene). The gene expression of the reference control group is as 100%.”

Huh-7 cells [7] = experiment: Apoptosis induction (Sub-G1) by flow cytometry; type: cell-based, human; conditions: Huh-7, FIGS. 5B and 5C
p-ERK in Hep3B cells = experiment: phospho-ERK protein level by Western blotting, Hep3B; type: cell-based, human; conditions: 24 hours, FIG. 4A
Procedure: (§4) Total-ERK, and phospho-ERK protein levels in HCC cells after sorafenib, SC-3 or SC-20 treatment at 24 hours. Whole-cell lysates after drug treatment were examined using Western blotting. Whole cell lysates of HCC cells after drug treatment were prepared and quantified as previously described (Ou D L et al. Cancer Res. 2010; 70:9309-18). SDS-PAGE and Western blot analysis were performed to measure protein expression. Signals were visualized using a UVP Imaging System (UVP, Upland, Calif.), or with X-ray film.

Huh-7 xenograft = experiment: Subcutaneous xenograft model of HCC, Huh-7; type: in vivo, mice; conditions: SC-20 20 mg/kg/d vs sorafenib 50 mg/kg/d
Procedure: (§5) The protocol for the in vivo studies was approved by the Institutional Animal Care and Use Committee of College of Medicine, National Taiwan University. All the animal studies were performed according to the criteria outlined in the Guide for the Care and Use of Laboratory Animals prepared by National Academy of Sciences and published by NIH. Male BALB/c athymic (nu+/nu+) mice were inoculated subcutaneously with Huh-7 cells or Huh-7R cells (˜1×10^6). When the tumor volume reached ˜100 mm3 [volume (mm3)=(width)2×length×0.5], the mice were randomized into six treatment groups (n≧6 in each group): (a) vehicle control, (b) SC-20: 5 mg/kg/d, (c) SC-20: 10 mg/kg/d, (d) SC-20: 20 mg/kg/d, (e) SC-20: 50 mg/kg/d and (f) sorafenib: 50 mg/kg/d. Drug treatment was given daily via gavage. Tumor volume and body weight were recorded every 7 days. Tumor images from mice are from sacrifices at 25 days of treatment.
(§6) An additional mice were used to establish xenografts to observe survival time. For these experiments, mice with subcutaneously tumors (100 mm^3) were treated as described above. Survival was monitored until the experiments were terminated due to heavy tumor burden over 2000 mm^3 (FIG. 6C). Tx start, treatment start time; Tx stop, treatment stop time.

[8] = test system: HCC cells (Huh-7, Hep3B, Huh-7R); experiment: MTT cell viability of HCC cells (FIG. 2A); type: cell-based, human; conditions: 72 hours, especially in sorafenib-resistant cell lines (Hep3B and Huh-7R)
Procedure: as §7, §10, §9

Huh-7 cells [9] = experiment: MTT cell viability, Huh-7; type: cell-based, human; conditions: sorafenib-sensitive Huh-7, 72 hours, FIG. 5A
Procedure: as §7
The HCC cell line, Hep3B, was obtained from the American Type Culture Collection (ATCC), and the Huh-7 cell line was from the Health Science Research Resources Bank. Cells were cultured in DMEM, containing 10% fetal bovine serum, penicillin (100 units/mL), streptomycin (100 μg/mL), L-glutamine (2 mmol/L), and sodium pyruvate (1 mmol/L) at 37° C. in a humidified incubator containing 5% CO2.
Huh-7 and Hep3B cells were treated with sorafenib, SC-3 or SC-20 for 72 hours, and the cell viability was assessed using an MTT assay.

Huh-7R xenograft = experiment: Subcutaneous xenograft model of HCC, Huh-7R; type: in vivo, mice; conditions: SC-20 20 mg/kg/d vs sorafenib 50 mg/kg/d
Procedure: as §5, §6

p-ERK in Huh-7 cells = experiment: phospho-ERK protein level by Western blotting, Huh-7; type: cell-based, human; conditions: Huh-7, 24 hours, FIG. 4A
Procedure: as §4

Hep3B cells [10] = conditions: human, 72 h
Procedure: as §7, §8, §9

Cc1cc(Oc2ccnc3c(N)cccc23)ccc1NC(=O)c1cc(C(F)(F)F)cc(C(F)(F)F)c1 [SC-21]
GADD45β relative gene expression, Mean [1]: 94.65% | GADD45γ relative gene expression, Mean [2]: 96.65% | c-Jun relative gene expression, Mean [3]: 77.51%

CNC(=O)c1cc(Oc2ccc(NC(=O)Nc3ccc(Cl)c(C(F)(F)F)c3)cc2)ccn1 [sorafenib, Sorafenib, reference compound]
GADD45β mRNA expression induction [1]: significantly induced | GADD45β relative gene expression, Mean [1]: 2226.40% | GADD45γ relative gene expression, Mean [2]: 1377.54% | cell viability of Hep3B (percentage of surviving cells) (Hep3B cells [4]): 68.57% | c-Jun relative gene expression, Mean [3]: 447.28%

Cc1cc(Oc2ccnc3c([N+](=O)[O-])cccc23)ccc1NC(=O)c1cc(C(F)(F)F)cc(C(F)(F)F)c1 [SC-20]
growth inhibition of HUVECs compared with sorafenib [5]: even more potent than sorafenib | tumor growth in terms of tumor volume and weight (BNL-MEA allograft; BNL-MEA allograft, SC-20 20 mg/kg/d, daily gavage, twenty-five treatments, FIGS. 7A and 7B): significantly inhibited tumor growth | tumor growth inhibition compared with sorafenib (BNL-MEA allograft; orthotopic model, SC-20 20 mg/kg/d vs sorafenib 10 mg/kg/d, FIG. 7C): inhibited tumor growth significantly more than sorafenib | GADD45γ mRNA induction [6]: can be induced | GADD45β mRNA expression induction [1]: significantly induced | GADD45β relative gene expression, Mean [1]: 1674.94% | apoptosis induction (Sub-G1) compared with sorafenib (Huh-7 cells [7]): more potency than sorafenib in inducing apoptosis | reduction of p-ERK (p-ERK in Hep3B cells): incapable of reducing p-ERK | screening criterion: increased expression of GADD45 family [2]: satisfied the increased expression of GADD45 family | GADD45γ relative gene expression, Mean [2]: 364.16% | GADD45γ mRNA induction ([2]; sorafenib-sensitive Huh-7, 10 μm, cut-off more than 300%, FIG. 3A): can be induced | cell viability of Hep3B (percentage of surviving cells) (Hep3B cells [4]): 36.78% | cell growth inhibition compared with sorafenib (Hep3B cells [4]; sorafenib-resistant Hep3B, 72 hours, FIG. 5A): more potency than sorafenib | mice survival time (Huh-7 xenograft; FIG. 6C): significantly prolong mice survival times more than highly dose of sorafenib | tumor growth inhibition (Huh-7 xenograft; daily gavage, FIG. 6A): significantly inhibited tumor growth more than highly dose of sorafenib | growth inhibition of HCC cells compared with sorafenib [8]: even more potent than sorafenib | c-Jun relative gene expression, Mean [3]: 515.47% | cell growth inhibition compared with sorafenib (Huh-7 cells [9]): more potency than sorafenib | mice survival time (Huh-7R xenograft; FIG. 6C): significantly prolong mice survival times more than highly dose of sorafenib | tumor growth inhibition (Huh-7R xenograft; daily gavage, FIG. 6B): significantly inhibited tumor growth more than highly dose of sorafenib | reduction of p-ERK (p-ERK in Huh-7 cells): incapable of reducing p-ERK

CC(=O)Nc1cccc2c(Oc3ccc(NC(=O)c4cc(C(F)(F)F)cc(C(F)(F)F)c4)c(C)c3)ccnc12 [SC-22]
GADD45β relative gene expression, Mean [1]: 340.21% | GADD45γ relative gene expression, Mean [2]: 229.94% | c-Jun relative gene expression, Mean [3]: 183.54%

N#Cc1ccc(Oc2ccc(NC(=O)Nc3ccc(Cl)c(C(F)(F)F)c3)cc2)cc1 [SC-1]
GADD45β relative gene expression, Mean [1]: 1156.44% | screening criterion: increased expression of GADD45 family [2]: satisfied the increased expression of GADD45 family | GADD45γ relative gene expression, Mean [2]: 402.46% | c-Jun relative gene expression, Mean [3]: 343.08%

N#Cc1ccc(Oc2ccc3cccc(NC(=O)Nc4ccc(Cl)c(C(F)(F)F)c4)c3c2)cc1 [SC-72]
cell viability of Hep3B (percentage of surviving cells) (Hep3B cells [10]): 15.65% | GADD45β relative gene expression, Mean [1]: 1951.02% | screening criterion: increased expression of GADD45 family [2]: satisfied the increased expression of GADD45 family | GADD45γ relative gene expression, Mean [2]: 1522.00% | growth inhibition of HCC cells compared with sorafenib [8]: even more potent than sorafenib | c-Jun relative gene expression, Mean [3]: 552.00%
